Data as given in patent US20230310428A1, “EGFR INHIBITOR AND PREPARATION METHOD AND USE THEREOF” (HONGYUN BIOTECH CO., LTD., priority 2020, published 2023).
Read-outs that look alike come from different tables or passages of the source.

Columns and labels:
Assay in all cases: Growth inhibitory activity of compounds on BaF3 cell lines stably transfected with kinase (MTS, 48 h)
Type in all cases: cell-based
[1] = target: T1, various mutants of kinase EGFR (BaF3 cell lines stably transfected with kinase) (Homo sapiens, UniProt P00533, C797S/L858R/T790M)
T1 construct: expressed in transfected cells; host or cells: BaF3
Method: (§1) The activity of compounds against various mutants of kinase EGFR was evaluated by their effect of inhibiting growth of BaF3 cell lines stably transfected with kinase. The specific test method was given as follows:
(§2) 1) Culture medium: DMEM (Dulbecco’s modified eagle medium) or RPMI 1640 (containing 10% fetal bovine serum, 100 µg/mL ampicillin, 100 µg/mL streptomycin).
(§3) 2) Reagent: MTS reaction solution (containing 2 mg/mL of MTS [3-(4,5-dimethylthiazol-2-yl)-5-(3-carboxymethoxyphenyl)-2-(4-sulfophenyl)-2H-tetrazoliu m, inner Salt]; 100 µg/mL of PES ([…])).
(§4) 3) Compound test: cells were incubated into a 96-well culture plate, the volume of cytosol was 90 µL, and then 10 µL of the compound at each gradient concentration was added. That is, the highest concentration was 10 µM, which was diluted stepwise by ⅓, and 8 concentration points were set in total; 0.1% DMSO (dimethyl sulfoxide) was contained in the system. The cell plate with uniformly mixed compound was cultured in a cell culture incubator (37° C.; 5% CO2) for 48 h, then 20 µL of MTS reaction solution was added, uniformly mixed and incubated in the cell culture incubator (37° C.; 5% CO2) for 1-4 h. OD values at 490 nm were measured by a microplate reader (VARIOSKAN FLASH, Thermo). Two parallels were set in each group of experiments, with 0.1% (a final concentration) DMSO as a negative control, and a culture medium without cells and compounds as a blank control. The cell growth inhibition rate was calculated by the following formula: […]
(§5) 4) IC50 calculation: The semi-inhibitory concentration of the compounds acting on cells was calculated using GradPad Prism 5 software according to the measured cell growth inhibition rate.

[2] = target: T2, various mutants of kinase EGFR (BaF3 cell lines stably transfected with kinase) (Homo sapiens, UniProt P00533)
T2 construct: other: BaF3 cells stably transfected with EGFR Δ19Del; MTS, 48 h; other: BaF3 cell line stably transfected with EGFR Δ19Del
Method: as §1, §2, §3, §4, §5

[3] = target: T3, various mutants of kinase EGFR (BaF3 cell lines stably transfected with kinase) (Homo sapiens, UniProt P00533, L858R/T790M)
T3 construct: expressed in transfected cells; host or cells: BaF3
Method: as §1, §2, §3, §4, §5

[4] = target: T4, various mutants of kinase EGFR (BaF3 cell lines stably transfected with kinase) (Homo sapiens, UniProt P00533, T790M/C797S, form not given)
T4 construct: other: BaF3 cells stably transfected with EGFR Δ19Del/T790M/C797S; MTS, 48; other: BaF3 cell line stably transfected with EGFR Δ19Del/T790M/C7
Method: as §1, §2, §3, §4, §5

[5] = target: T5, various mutants of kinase EGFR (BaF3 cell lines stably transfected with kinase) (Homo sapiens, UniProt P00533, T790M, form not given)
T5 construct: other: BaF3 cells stably transfected with EGFR Δ19Del/T790M; MTS, 48 h; other: BaF3 cell line stably transfected with EGFR Δ19Del/T790M; MTS, 48
Method: as §1, §2, §3, §4, §5

[6] = target: T6, various mutants of kinase EGFR (BaF3 cell lines stably transfected with kinase) (Homo sapiens, UniProt P00533, L858R)
T6 construct: expressed in transfected cells; host or cells: BaF3
Method: as §1, §2, §3, §4, §5

[7] = BaF3 cells stably transfected with EGFR L858R/T790M/C797S, read-out: IC50, growth inhibition, L858R/T790M/C797S
[8] = BaF3 cells stably transfected with EGFR Δ19Del, read-out: IC50, growth inhibition, Δ19Del
[9] = BaF3 cells stably transfected with EGFR L858R/T790M, read-out: IC50, growth inhibition, L858R/T790M
[10] = BaF3 cells stably transfected with EGFR Δ19Del/T790M/C797S, read-out: IC50, growth inhibition, Δ19Del/T790M/C797S
[11] = BaF3 cells stably transfected with EGFR Δ19Del/T790M, read-out: IC50, growth inhibition, Δ19Del/T790M
[12] = BaF3 cells stably transfected with EGFR L858R, read-out: IC50, growth inhibition, L858R
[13] = BaF3 cell line stably transfected with EGFR L858R/T790M/C797S, read-out: L858R/T790M/ C797S growth inhibitory activity IC50
[14] = BaF3 cell line stably transfected with EGFR Δ19Del, read-out: Δ19Del growth inhibitory activity IC50
[15] = BaF3 cell line stably transfected with EGFR L858R/T790M, read-out: L858R/ T790M growth inhibitory activity IC50
[16] = BaF3 cell line stably transfected with EGFR Δ19Del/T790M/C797S, read-out: Δ19Del/T790M/ C797S growth inhibitory activity IC50
[17] = BaF3 cell line stably transfected with EGFR Δ19Del/T790M, read-out: Δ19Del/ T790M growth inhibitory activity IC50
[18] = BaF3 cell line stably transfected with EGFR L858R, read-out: L858R growth inhibitory activity IC50

T5 sequence (P00533 with tags, fused parts or gaps DEL746-750/T790M, form open): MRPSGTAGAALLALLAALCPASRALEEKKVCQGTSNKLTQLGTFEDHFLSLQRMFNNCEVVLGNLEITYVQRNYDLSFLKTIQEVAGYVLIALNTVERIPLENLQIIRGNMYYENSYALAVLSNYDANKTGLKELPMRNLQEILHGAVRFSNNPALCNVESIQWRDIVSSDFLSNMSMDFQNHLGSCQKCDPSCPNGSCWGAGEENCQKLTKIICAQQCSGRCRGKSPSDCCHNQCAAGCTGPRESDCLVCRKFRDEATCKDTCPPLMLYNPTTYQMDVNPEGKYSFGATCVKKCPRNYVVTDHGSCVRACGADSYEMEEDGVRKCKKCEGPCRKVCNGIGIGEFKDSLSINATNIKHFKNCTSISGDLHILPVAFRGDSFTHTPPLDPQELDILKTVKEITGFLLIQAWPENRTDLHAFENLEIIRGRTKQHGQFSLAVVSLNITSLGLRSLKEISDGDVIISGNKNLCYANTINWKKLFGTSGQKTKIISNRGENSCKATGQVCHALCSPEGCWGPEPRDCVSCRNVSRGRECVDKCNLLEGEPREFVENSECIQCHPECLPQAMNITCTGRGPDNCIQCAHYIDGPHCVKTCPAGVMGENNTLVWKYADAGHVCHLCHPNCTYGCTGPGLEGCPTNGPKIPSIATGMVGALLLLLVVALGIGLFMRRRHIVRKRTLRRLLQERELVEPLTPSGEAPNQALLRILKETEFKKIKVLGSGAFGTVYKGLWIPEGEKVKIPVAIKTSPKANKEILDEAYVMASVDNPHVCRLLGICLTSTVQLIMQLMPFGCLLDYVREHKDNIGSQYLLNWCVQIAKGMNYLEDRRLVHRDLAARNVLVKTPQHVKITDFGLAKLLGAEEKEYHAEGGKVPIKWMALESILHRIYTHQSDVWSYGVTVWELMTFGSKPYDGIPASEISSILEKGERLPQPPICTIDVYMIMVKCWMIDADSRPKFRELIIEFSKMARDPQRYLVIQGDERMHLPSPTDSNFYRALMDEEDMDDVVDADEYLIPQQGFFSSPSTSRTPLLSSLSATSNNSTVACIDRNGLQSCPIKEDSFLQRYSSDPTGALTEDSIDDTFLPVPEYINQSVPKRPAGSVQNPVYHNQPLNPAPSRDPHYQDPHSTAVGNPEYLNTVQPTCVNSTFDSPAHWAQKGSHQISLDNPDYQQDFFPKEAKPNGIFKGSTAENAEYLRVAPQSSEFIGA
T2 sequence (P00533 with tags, fused parts or gaps DEL746-750): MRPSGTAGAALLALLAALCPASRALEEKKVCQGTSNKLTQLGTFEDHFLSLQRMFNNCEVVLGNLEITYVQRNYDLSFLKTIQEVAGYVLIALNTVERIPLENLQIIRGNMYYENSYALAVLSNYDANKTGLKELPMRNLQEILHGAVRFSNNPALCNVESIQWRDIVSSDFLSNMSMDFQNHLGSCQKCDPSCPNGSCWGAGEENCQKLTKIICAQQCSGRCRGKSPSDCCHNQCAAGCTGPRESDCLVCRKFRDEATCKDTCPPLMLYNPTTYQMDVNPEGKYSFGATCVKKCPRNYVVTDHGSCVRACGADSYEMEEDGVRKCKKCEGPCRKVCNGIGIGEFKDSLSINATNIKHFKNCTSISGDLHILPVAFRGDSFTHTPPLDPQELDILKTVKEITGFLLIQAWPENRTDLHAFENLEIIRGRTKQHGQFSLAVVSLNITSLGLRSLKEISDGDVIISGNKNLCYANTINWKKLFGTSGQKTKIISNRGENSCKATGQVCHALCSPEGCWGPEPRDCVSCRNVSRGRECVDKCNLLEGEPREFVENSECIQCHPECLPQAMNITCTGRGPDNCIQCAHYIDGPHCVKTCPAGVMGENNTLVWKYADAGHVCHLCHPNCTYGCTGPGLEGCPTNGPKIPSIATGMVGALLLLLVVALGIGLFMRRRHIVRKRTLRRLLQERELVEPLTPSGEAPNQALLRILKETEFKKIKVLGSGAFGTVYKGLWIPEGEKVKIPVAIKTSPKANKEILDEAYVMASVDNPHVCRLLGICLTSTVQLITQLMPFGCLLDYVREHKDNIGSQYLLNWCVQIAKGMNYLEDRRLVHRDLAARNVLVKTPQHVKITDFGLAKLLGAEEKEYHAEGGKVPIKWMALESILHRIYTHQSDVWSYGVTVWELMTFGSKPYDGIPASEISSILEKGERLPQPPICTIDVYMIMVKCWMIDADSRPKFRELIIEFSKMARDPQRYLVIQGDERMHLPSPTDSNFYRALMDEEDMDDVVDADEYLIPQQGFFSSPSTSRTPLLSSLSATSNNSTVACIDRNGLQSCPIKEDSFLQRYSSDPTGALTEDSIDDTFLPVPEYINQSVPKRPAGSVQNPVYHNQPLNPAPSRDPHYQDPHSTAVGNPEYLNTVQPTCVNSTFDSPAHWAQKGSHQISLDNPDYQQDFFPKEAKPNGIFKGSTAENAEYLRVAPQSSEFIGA
T4 sequence (P00533 with tags, fused parts or gaps DEL746-750/T790M/C797S, form open): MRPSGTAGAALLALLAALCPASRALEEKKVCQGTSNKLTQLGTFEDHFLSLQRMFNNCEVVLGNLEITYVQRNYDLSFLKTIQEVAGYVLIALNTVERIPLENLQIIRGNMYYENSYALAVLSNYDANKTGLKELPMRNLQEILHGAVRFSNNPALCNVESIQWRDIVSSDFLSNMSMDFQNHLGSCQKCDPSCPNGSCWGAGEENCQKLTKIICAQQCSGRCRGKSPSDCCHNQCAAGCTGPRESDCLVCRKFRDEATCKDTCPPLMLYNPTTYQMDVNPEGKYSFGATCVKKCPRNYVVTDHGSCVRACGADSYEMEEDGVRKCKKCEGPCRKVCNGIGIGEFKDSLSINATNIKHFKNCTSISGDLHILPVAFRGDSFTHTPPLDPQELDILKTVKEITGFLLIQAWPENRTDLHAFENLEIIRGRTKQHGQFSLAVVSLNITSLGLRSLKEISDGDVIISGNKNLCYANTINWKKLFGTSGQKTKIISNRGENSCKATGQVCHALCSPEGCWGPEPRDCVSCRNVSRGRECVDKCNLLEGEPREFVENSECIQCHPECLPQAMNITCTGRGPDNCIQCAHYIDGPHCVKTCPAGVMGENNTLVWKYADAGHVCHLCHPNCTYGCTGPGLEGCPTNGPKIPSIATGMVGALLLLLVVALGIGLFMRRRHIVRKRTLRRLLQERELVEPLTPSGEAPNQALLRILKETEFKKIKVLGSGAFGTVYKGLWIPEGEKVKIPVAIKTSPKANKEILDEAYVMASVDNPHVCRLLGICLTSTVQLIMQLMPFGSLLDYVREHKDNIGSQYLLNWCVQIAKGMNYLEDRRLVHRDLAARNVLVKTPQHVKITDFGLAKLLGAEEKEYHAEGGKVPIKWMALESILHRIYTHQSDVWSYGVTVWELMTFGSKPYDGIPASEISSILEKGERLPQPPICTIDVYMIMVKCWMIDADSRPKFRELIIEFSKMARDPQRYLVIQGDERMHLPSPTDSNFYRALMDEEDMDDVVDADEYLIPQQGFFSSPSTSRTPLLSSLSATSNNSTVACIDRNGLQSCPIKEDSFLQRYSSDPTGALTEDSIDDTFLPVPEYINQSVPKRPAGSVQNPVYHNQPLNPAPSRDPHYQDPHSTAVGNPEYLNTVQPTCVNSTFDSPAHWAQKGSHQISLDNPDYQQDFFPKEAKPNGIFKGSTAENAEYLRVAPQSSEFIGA
T6 sequence (P00533 25-1210 L858R): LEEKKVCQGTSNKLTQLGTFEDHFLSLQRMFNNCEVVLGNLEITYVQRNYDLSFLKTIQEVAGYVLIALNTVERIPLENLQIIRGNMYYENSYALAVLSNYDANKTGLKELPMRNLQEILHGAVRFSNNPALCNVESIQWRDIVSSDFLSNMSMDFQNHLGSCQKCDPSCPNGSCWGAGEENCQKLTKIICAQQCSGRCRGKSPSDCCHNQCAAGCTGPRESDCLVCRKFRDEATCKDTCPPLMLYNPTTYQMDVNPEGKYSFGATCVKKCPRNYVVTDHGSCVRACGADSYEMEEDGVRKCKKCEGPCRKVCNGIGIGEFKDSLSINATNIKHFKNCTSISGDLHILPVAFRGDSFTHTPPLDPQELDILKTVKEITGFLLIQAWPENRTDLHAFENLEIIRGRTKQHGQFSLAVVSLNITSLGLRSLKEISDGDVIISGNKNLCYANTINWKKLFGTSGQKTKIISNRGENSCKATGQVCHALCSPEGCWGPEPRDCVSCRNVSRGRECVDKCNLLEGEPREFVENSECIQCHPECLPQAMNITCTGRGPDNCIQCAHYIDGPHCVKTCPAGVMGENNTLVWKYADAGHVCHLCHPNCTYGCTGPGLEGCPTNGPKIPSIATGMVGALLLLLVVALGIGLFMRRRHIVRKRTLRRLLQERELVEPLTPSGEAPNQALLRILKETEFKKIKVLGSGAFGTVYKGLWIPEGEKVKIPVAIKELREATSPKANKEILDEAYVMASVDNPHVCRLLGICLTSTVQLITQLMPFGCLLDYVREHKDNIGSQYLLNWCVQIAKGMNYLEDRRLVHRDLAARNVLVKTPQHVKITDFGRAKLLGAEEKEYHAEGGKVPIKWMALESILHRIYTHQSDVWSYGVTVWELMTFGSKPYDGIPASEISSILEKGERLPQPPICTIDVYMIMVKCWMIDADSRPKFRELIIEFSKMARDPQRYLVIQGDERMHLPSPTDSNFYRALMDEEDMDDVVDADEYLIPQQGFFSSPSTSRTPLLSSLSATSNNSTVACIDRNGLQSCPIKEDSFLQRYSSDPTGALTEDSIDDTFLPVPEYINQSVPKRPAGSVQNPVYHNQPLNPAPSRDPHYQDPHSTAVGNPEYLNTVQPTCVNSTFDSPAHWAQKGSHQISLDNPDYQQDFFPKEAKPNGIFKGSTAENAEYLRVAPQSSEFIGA

| Structure (SMILES) | IC50 [1, 7] [nM] | IC50 [2, 8] [nM] | IC50 [3, 9] [nM] | IC50 [4, 10] [nM] | IC50 [5, 11] [nM] | IC50 [6, 12] [nM] | IC50 [1, 13] [nM] | IC50 [2, 14] [nM] | IC50 [3, 15] [nM] | IC50 [4, 16] [nM] | IC50 [5, 17] [nM] | IC50 [6, 18] [nM] |
| --- | --- | --- | --- | --- | --- | --- | --- | --- | --- | --- | --- | --- |
| COc1cc(N2CCC(N(C)C)C2)c(C)cc1Nc1ncc(Cl)c(Nc2ccc3nccnc3c2N(C)S(C)(=O)=O)n1 (stereo not drawn) [Compound I-173] | ≤ 50 | ≤ 50 | ≤ 50 | ≤ 50 | ≤ 50 | ≤ 50 |  |  |  |  |  |  |
| COc1cc(N2CCC(N3CCN(C)CC3)CC2)ccc1Nc1ncc(C(F)(F)F)c(Nc2ccc3nccnc3c2N(C)S(C)(=O)=O)n1 [Compound I-33] | 50 to 500 | 50 to 500 | ≤ 50 | ≤ 50 | ≤ 50 | ≤ 50 |  |  |  |  |  |  |
| COc1cc(C(=O)N2CCC(N3CCN(C)CC3)CC2)ccc1Nc1ncc(Br)c(Nc2ccc3nccnc3c2N(C)S(C)(=O)=O)n1 [Compound I-48] | ≤ 50 | 50 to 500 | 50 to 500 | ≤ 50 | 50 to 500 | 50 to 500 |  |  |  |  |  |  |
| CN(c1c(Nc2nc(Nc3cnn(C)c3)ncc2Br)ccc2nccnc12)S(C)(=O)=O [Compound I-67] | ≤ 50 | ≤ 50 | ≤ 50 | 50 to 500 | ≤ 50 | 50 to 500 |  |  |  |  |  |  |
| COc1cc(N2CCC(N3CCN(C)CC3)CC2)c(CC2CC2)cc1Nc1ncc(Br)c(Nc2ccc3nccnc3c2N(C)S(C)(=O)=O)n1 [Compound I-10] | ≤ 50 | 50 to 500 | ≤ 50 | ≤ 50 | ≤ 50 | ≤ 50 |  |  |  |  |  |  |
| CN1CCN(C2CCN(c3c(F)cc(Nc4ncc(Br)c(Nc5ccc6nccnc6c5NS(C)(=O)=O)n4)cc3F)CC2)CC1 [Compound I-360] |  |  |  |  |  |  | 50 to 500 | 50 to 500 | ≤ 50 | 50 to 500 | 50 to 500 | ≤ 50 |
| CCc1cc(Nc2ncc(Br)c(Nc3ccc4nccnc4c3N(C)S(=O)(=O)C3CC3)n2)c(OC)nc1N1CCC(N2CCN(C)CC2)CC1 [Compound I-218] | ≤ 50 | 50 to 500 | ≤ 50 | ≤ 50 | ≤ 50 | 50 to 500 |  |  |  |  |  |  |
| CCn1cc(Nc2ncc(Br)c(Nc3ccc4nccnc4c3N(C)S(C)(=O)=O)n2)cn1 [Compound I-386] |  |  |  |  |  |  | 50 to 500 | 50 to 500 | 50 to 500 | ≤ 50 | 50 to 500 | 50 to 500 |
| CCc1cnc(Nc2ccc(N3CCC(N4CCN(C)CC4)CC3)cc2OC)nc1Nc1ccc2nccnc2c1N(C)S(C)(=O)=O [Compound I-316] |  |  |  |  |  |  | 50 to 500 | 50 to 500 | 50 to 500 | ≤ 50 | 50 to 500 | 50 to 500 |
| COc1cc(N2CCC(N(C)C)C2)c(C)cc1Nc1ncc(F)c(Nc2ccc3nccnc3c2N(C)S(C)(=O)=O)n1 (stereo not drawn) [Compound I-187] | 50 to 500 | ≤ 50 | 50 to 500 | 50 to 500 | 50 to 500 | 50 to 500 |  |  |  |  |  |  |
| COc1ccc(N2CCC(O)CC2)cc1Nc1ncc(C(C)C)c(Nc2ccc3nccnc3c2N(C)S(C)(=O)=O)n1 [Compound I-364] |  |  |  |  |  |  | ≤ 50 | ≤ 50 | 50 to 500 | 50 to 500 | ≤ 50 | 50 to 500 |
| CCc1cc(Nc2ncc(F)c(Nc3ccc4nccnc4c3N(C)S(=O)(=O)C3CC3)n2)c(OC)cc1N1CCC(N(C)C)CC1 [Compound I-252] | 50 to 500 | ≤ 50 | ≤ 50 | ≤ 50 | 50 to 500 | ≤ 50 |  |  |  |  |  |  |
